Experimental data reported in patent US20230099293A1, “OGA INHIBITOR COMPOUNDS” (priority 2019, published 2023).

What was measured:
hOGA = target: T1, hOGA (Homo sapiens, UniProt O60502); experiment: OGA cellular assay (ICC detection of O-GlcNAcylated proteins in HEK293 cells inducible for P301L mutant human Tau); format: cell-based; set-up: Emax: dose or concentration left out as unconfirmed; settings: for EC50: Cellular hOGA, pEC50, Table 5, HEK293 P301L Tau cells, 6 hours incubation, O-GlcNAcylation readout; for Emax: HEK293, read-out: Cellular Emax (%)
T1 construct: endogenous in cells; host or cells: HEK293 cells inducible for P301L mutant human Tau (isoform 2N4R)
T1 sequence (O60502 1-916): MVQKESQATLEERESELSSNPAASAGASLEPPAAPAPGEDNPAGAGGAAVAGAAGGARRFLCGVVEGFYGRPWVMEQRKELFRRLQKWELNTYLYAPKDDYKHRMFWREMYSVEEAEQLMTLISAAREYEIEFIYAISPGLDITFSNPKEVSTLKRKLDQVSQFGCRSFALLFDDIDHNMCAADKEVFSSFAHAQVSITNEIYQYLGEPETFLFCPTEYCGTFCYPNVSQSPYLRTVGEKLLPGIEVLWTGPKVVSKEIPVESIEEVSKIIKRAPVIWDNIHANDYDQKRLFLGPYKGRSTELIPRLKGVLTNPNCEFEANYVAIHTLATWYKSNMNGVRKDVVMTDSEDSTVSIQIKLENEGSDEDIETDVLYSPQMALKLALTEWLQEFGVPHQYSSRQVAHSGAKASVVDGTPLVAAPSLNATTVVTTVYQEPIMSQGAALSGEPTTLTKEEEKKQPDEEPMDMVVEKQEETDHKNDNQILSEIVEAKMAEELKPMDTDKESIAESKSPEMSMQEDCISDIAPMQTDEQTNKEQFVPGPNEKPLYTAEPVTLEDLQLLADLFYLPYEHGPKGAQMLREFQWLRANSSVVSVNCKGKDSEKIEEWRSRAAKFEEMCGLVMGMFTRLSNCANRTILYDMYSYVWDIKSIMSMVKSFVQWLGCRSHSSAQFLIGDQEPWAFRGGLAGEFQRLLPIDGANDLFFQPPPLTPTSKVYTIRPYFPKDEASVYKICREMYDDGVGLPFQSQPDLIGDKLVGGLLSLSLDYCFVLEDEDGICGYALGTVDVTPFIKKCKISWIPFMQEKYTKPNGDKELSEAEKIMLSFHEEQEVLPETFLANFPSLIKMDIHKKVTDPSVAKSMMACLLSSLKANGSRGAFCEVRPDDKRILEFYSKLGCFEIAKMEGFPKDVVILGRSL
Experimental: HEK293 cells inducible for P301L mutant human Tau (isoform 2N4R) were established at Janssen. Thiamet-G was used for both plate validation (high control) and as reference compound (reference EC50 assay validation). OGA inhibition is evaluated through the immunocytochemical (ICC) detection of O-GlcNAcylated proteins by the use of a monoclonal antibody (CTD110.6; Cell Signaling, #9875) detecting O-GlcNAcylated residues as previously described (Dorfmueller et al. 2010 Chemistry & biology, 17:1250). Inhibition of OGA will result in an increase of O-GlcNAcylated protein levels resulting in an increased signal in the experiment. Cell nuclei are stained with Hoechst to give a cell culture quality control and a rough estimate of immediate compounds toxicity, if any. ICC pictures are imaged with a Perkin Elmer Opera Phenix plate microscope and quantified with the provided software Perkin Elmer Harmony 4.1.
Cells were propagated in DMEM high Glucose (Sigma, #D5796) following standard procedures. 2 days before the cell assay cells are split, counted and seeded in Poly-D-Lysine (PDL) coated 96-wells (Greiner, #655946) plate at a cell density of 12,000 cells per cm^2 (4,000 cells per well) in 100 μl of Assay Medium (Low Glucose medium is used to reduce basal levels of GlcNAcylation) (Park et al. 2014 The Journal of biological chemistry 289:13519). At the day of compound test medium from assay plates was removed and replenished with 90 μl of fresh Assay Medium. 10 μl of compounds at a 10 fold final concentration were added to the wells. Plates were centrifuged shortly before incubation in the cell incubator for 6 hours. DMSO concentration was set to 0.2%. Medium is discarded by applying vacuum. For staining of cells medium was removed and cells washed once with 100 μl D-PBS (Sigma, #D8537). From next step onwards unless other stated assay volume was always 50 μl and incubation was performed without agitation and at room temperature. Cells were fixed in 50 μl of a 4% paraformaldehyde (PFA, Alpha aesar, #043368) PBS solution for 15 minutes at room temperature. […] Before analysis samples were washed 2 times manually for 5 minutes in ICC base buffer.
Imaging is performed using Perkin Elmer Phenix Opera using a water 20× objective and recording 9 fields per well. Intensity readout at 488 nm is used as a measure of O-GlcNAcylation level of total proteins in wells. To assess potential toxicity of compounds nuclei were counted using the Hoechst staining. IC50-values are calculated using parametric non-linear regression model fitting. As a maximum inhibition Thiamet Gat a 200 uM concentration is present on each plate. In addition, a concentration response of Thiamet G is calculated on each plate.

[1] = target: T2, recombinant human Meningioma Expressed Antigen 5 (MGEA5), also referred to as O-GlcNAcase (OGA) (Homo sapiens, UniProt O60502); experiment: OGA biochemical assay (inhibition of FM-GlcNAc hydrolysis, fluorescence); settings: for IC50: Enzymatic hOGA, pIC50, Table 5, full length OGA 2 nM, FM-GlcNAc 100 uM, 6 h at room temperature; for Emax: read-out: Enzymatic Emax (%)
T2 construct: Full length OGA enzyme was purchased at OriGene (cat #TP322411); purchased OriGene TP322411
T2 sequence (O60502 1-916): T1 sequence (O60502 1-916)
Experimental: The hydrolysis FM-GlcNAc (Marker Gene technologies, cat #M1485) results in the formation of β-D-N-glucosamineacetate and fluorescein. The fluorescence of the latter can be measured at excitation wavelength 485 nm and emission wavelength 538 nm. An increase in enzyme activity results in an increase in fluorescence signal. Full length OGA enzyme was purchased at OriGene (cat #TP322411). The enzyme was stored in 25 mM Tris.HCl, pH 7.3, 100 mM glycine, 10% glycerol at −20° C. […] The assay was performed in 200 mM Citrate/phosphate buffer supplemented with 0.005% Tween-20. 35.6 g Na2HIPO42H2O (Sigma, #C0759) were dissolved in 1 L water to obtain a 200 mM solution. […] The buffer to stop the reaction consists of a 500 mM Carbonate buffer, pH 11.0. […] OGA was used at a 2 nM concentration and FM-GlcNAc at a 100 uM final concentration. Dilutions were prepared in assay buffer.
Plates were pre-incubated for 60 min at room temperature and then 2 μl FM-GlcNAc substrate mix added. […] Plates were briefly centrifuged for 1 min at 1000 rpm and incubate at room temperature for 6 h. To stop the reaction 5 μl STOP buffer were added and plates centrifuge again 1 min at 1000 rpm. Fluorescence was quantified in the Thermo Scientific Fluoroskan Ascent or the PerkinElmer EnVision with excitation wavelength 485 nm and emission wavelength 538 nm.
For analysis a best-fit curve is fitted by a minimum sum of squares method. From this an IC50 value and Hill coefficient was obtained. High control (no inhibitor) and low control (saturating concentrations of standard inhibitor) were used to define the minimum and maximum values.

SMILES	EC50 (hOGA) [nM]	Emax (hOGA) [%]	melting point [°C]	IC50 [1] [nM]	Emax [1] [%]
Cc1cc(OC(F)(F)F)cc(Cl)c1Nc1nccc2c1ncn2CC(=O)N(C)C [Compound 16]	316	66	182.81	13.5	101
CN(C)C(=O)Cn1cnc2c(Nc3c(Cl)cc(C(F)(F)F)cc3Cl)nccc21 [Compound 17]	316	77	238.4	16.2	99
Cc1ccc(C(F)(F)F)c(C)c1Nc1nccc2c1ncn2CC(=O)N(C)C [Compound 18]	631	56	250	16.2	99
Cc1cc(C)c(Nc2nccc3c2ncn3CC(=O)N(C)C)c(C)c1 [Compound 19]	537	62	270.2	20	98
Cc1cc(F)cc(C)c1Nc1nccc2c1ncn2CC(=O)N(C)C [Compound 20]	170	83	216.7	18.6	98
CN(C)C(=O)Cn1cnc2c(Nc3c(Cl)cc(F)cc3Cl)nccc21 [Compound 21]	123	69	243.4	30.9	95
Cc1cc(-c2cnn(C)c2)cc(C(C)C)c1Nc1nccc2c1ncn2CC(=O)N(C)C [Compound 22]	> 1000	31	234.4	41.7	98
Cc1cc(C(F)(F)F)nc(C)c1Nc1nccc2c1ncn2CC(=O)N(C)C [Compound 23]	1020	51	233.3	45.7	99
CN(C)C(=O)Cn1cnc2c(Nc3c(Cl)cc(F)cc3C(F)(F)F)nccc21 [Compound 24]	398	82	219.9	45.7	96
Cc1cc(C(F)(F)F)cc(F)c1Nc1nccc2c1ncn2CC(=O)N(C)C [Compound 25]	> 1000	29	226.6	135	96
Cc1nccc(C(F)F)c1Nc1nccc2c1ncn2CC(=O)N(C)C [Compound 27]	> 1000	18	216.6	372	89
CN(C)C(=O)Cn1cnc2c(Nc3ccc(F)cc3C(F)(F)F)nccc21 [Compound 29]	> 200	2	246.7	1000	100
Cc1cc2c(ncn2CC(=O)N(C)C)c(Nc2c(C)cc(C(F)(F)F)cc2C)n1 [Compound 30]	> 1000	12	188.2	5890	55
CC(C)c1cc(C(F)(F)F)cc(F)c1Nc1nccc2c1ncn2CC(=O)N(C)C [Compound 31]	> 1000	36	191.4	87.1	104
Cc1nn(-c2ccc(F)cn2)c(C)c1Nc1nccc2c1ncn2CC(=O)N(C)C [Compound 32]	> 1000	34	256.6	174	100
Cc1nn(-c2cccc(C#N)c2)c(C)c1Nc1nccc2c1ncn2CC(=O)N(C)C [Compound 33]	479	63	239.9	20.4	97
Cc1nn(-c2cccc(F)c2)c(C)c1Nc1nccc2c1ncn2CC(=O)N(C)C [Compound 34]	562	54	181.5	36.3	99
Cc1cc(C(F)(F)F)cc(C)c1Nc1ncc(F)c2c1ncn2CC(=O)N(C)C [Compound 35]	> 1000	25	236.7	178	96
COc1cccc(-n2nc(C)c(Nc3nccc4c3ncn4CC(=O)N(C)C)c2C)c1 [Compound 36]	603	55	179.7	29.5	101
CC(=O)n1nc(C)c(Nc2nccc3c2ncn3CC(=O)N(C)C)c1C [Compound 37]	> 1000	8	175.4	> 10000	2
Cc1n[nH]c(C)c1Nc1nccc2c1ncn2CC(=O)N(C)C [Compound 38]	> 1000	6	283.5	912	90
Cc1c(C(F)(F)F)nn(C)c1Nc1nccc2c1ncn2CC(=O)N(C)C [Compound 39]	> 1000	12	240	631	94
Cc1c(-c2cccc(F)c2)nn(C)c1Nc1nccc2c1ncn2CC(=O)N(C)C [Compound 40]	> 1000	27	230	105	102
Cc1nn(-c2ccccc2)c(C)c1Nc1nccc2c1ncn2CC(=O)N(C)C [Compound 41]	> 1000	44	126.3	28.2	95
